Measured values reported in patent US20030017497A1, “Peptide mimotopes of carbohydrate antigens” (priority 1998, published 2003).
Entries after “also recorded” stand apart in the source; their conditions may differ. Like-named read-outs stand apart in the source and are kept apart here. Where no end group is shown, it is not given here.

Key:
[1] = test system: MCF-7; assay: Complement dependent cytotoxicity (CDC); assay type: cell-based, human
Text: (§1) Anti-carbohydrate antibodies may mediate complement dependent cytotoxicity (CDC) better than cytotoxicity associated with various effector cells. Subsequently, we have initially examined CDC mediation of various sera raised either to peptides or against the multivalent LeY-PAA form. […] We examined the ability of the sera to mediate complement dependent cytotoxicity (CDC) of the SKBR3 and MCF7 human breast adenocarcinoma cell lines, the ovarian tumor cell line OVAR-3 and the human melanoma lines WM793 and SKMEL-28 compared to that of the LeY-PAA generated sera. Positive control antibodies were BR55-2 which mediates CDC of the adenocarcinoma lines, and ME361 which mediates killing of WM793. Negative controls were pre-immune sera, an irrelevant peptide immunogen (C1) and two peptides (G1 and G2) isolated from phage display that are reactive with ME361.

[2] = test system: OVAR-3; assay: Complement dependent cytotoxicity (CDC); assay type: cell-based, human
Text: as §1

[3] = test system: SKME1-28; assay: Complement dependent cytotoxicity (CDC); assay type: cell-based, human
Text: as §1

[4] = test system: WM793; assay: Complement dependent cytotoxicity (CDC); assay type: cell-based, human
Text: as §1

[5] = test system: SKBR3; assay: Complement dependent cytotoxicity (CDC); assay type: cell-based, human
Text: as §1

[6] = test system: anti-LeY monoclonal antibody BR55-2; assay: ELISA reaction of MAb BR55-2 with peptides (MAP forms); assay type: binding; settings: for ELISA reactivity of BR55-2 with MAP peptide: MAP peptide forms; for binding of peptide to BR55-2 in ELISA: monovalent peptide
Description: (§2) FIGS. 2A and 2B depict the reactivity of putative motifs by ELISA. […] Constant amounts of BR55-2 were incubates with increasing amounts of MAP peptides, and then reaction of free mAb with LeY was measured by ELISA. Data points reflect 50% inhibition at 2 μg/ml of peptide inhibitor as measured by reduction of O.D. values in ELISA.
(§3) For example, polyclonal antibodies raised against the motif YYRYD might cross-react with MCP and with LeY. […] To further determine the extent of cross-reactivity for these motifs, peptides were synthesized repeating the respective putative centralized motifs shown in Table 2. It is theorized that the repeating tract should adopt a helix configuration which emulates many extended carbohydrate structures. To evaluate the antigenic mimicry of motif forms, we synthesized respective multiple antigen peptides (MAP) forms for detection of a reactivity pattern with the anti-LeY monoclonal antibodies BR55-2, and 15.6 (also referred to as BR15.6) and the anti-ganglioside antibody ME361 (FIG. 2a). Significant reactive sequences in FIG. 2a correspond to 3 peptides,
(§4) BR55-2 and 15.6A show distinct binding properties for LeY expressing tumor cells. […] The general mimicry of the K1106, K1105 and K1107 peptides for Le antigens is further assessed by ELISA reactivity with the anti-SA-LeX monoclonal antibody FH-6 (FIG. 3). These peptides are also reactive with this antibody. The significance of this reactivity is that previous reports indicate that peptides might only be reactive with antibodies that isolate them and in fact it is expected that peptide mimotopes might be not true mimics of carbohydrates.

[7] = test system: anti-SA-LeX monoclonal antibody FH-6; assay: ELISA reactivity of peptides with antibody FH-6; assay type: binding
Text: FIG. 3 depicts the reactivity of the anti-sLex antibody FH-6 with MAP peptides.
as §4

[8] = test system: anti-LeY monoclonal antibody 15.6 (BR15.6, 15.6A); assay: ELISA reaction of MAb 15.6 (BR15-6A) with peptides; assay type: binding
Description: as §2, §3
(§5) BR55-2 and 15.6A show distinct binding properties for LeY expressing tumor cells. […] The general mimicry of the K1106, K1105 and K1107 peptides for Le antigens is further assessed by ELISA reactivity with the anti-SA-LeX monoclonal antibody FH-6 (FIG. 3). These peptides are also reactive with this antibody. […]

[9] = test system: BR55-2 binding to LeY-PAA; assay: Inhibition of mAb BR55-2 binding to solid-phase LeY-PAA by soluble MAP peptides (ELISA); settings: 20 times molar excess of MAP peptide
Description: as §2, §4

[10] = ELISA with various synthetic carbohydrate subunit probes; assay type: binding
Description: To further evaluate the specificity of the anti-carbohydrate IgG fraction derived from proteosome-conjugate immunized mice, ELISA assays were performed with plates coated with various synthetic carbohydrate subunit probes (FIG. 5a). […] It was observed that the anti-peptide sera (1:100 titer) was reactive with respective carbohydrate probes above background binding. Preferences for antisera against the YPY motif include Fucα1-3GlcNAc representative of LeY, and Lex, the H type 1 structure Fucα1-2Galβ1-3GlcNAc representative of Leb, and the disaccharide Galb1-4Glc which is a major constituent bacterial LOS. […] The antisera reacted with both H type 1 and H type 2 (Fucα1-2Galβ1-4GlcNAc) structures, with the type 1 structure displaying slightly more activity. This may reflect interaction with the common Fucα1-2Gal structure found on type 1 and type 2 structures or functional groups that are shared within the common topography of these two chains.
In contrast to the proteosome-peptide conjugates, increased specificity for LeY is observed for the MAP forms (FIG. 5b). At 1:50 dilution, the LeY reactivity of the antisera is approximately 3 fold more reactive with LeY than with Leb, Lex-pentasaccharide, SLea, SLex. […] Considering the diminished reactivity against LeX which shares the Galβ1→4(Fucα1→3)GlcNAcβ1 component it would appear that a fraction of antibodies react with a conformational component of LeY, providing for its increased reactivity, or alternatively, the affinity for LeY is increased.
To further evaluate the specificity of the 1104 peptide we synthesized 1104 as a MAP form and immunized Balb/c mice, with QS-21 as adjuvant and examined its reactivity pattern with various Le synthetic probes by ELISA (FIG. 9). The utility of MAP peptides is in their apparent advantage as immunogens. […] However, the MAPS described above contain T cell epitopes within the peptide sequence. […] We have observed this trend with MAP peptides.
At 1:50 serum dilution (FIG. 9), we observed about the same level of reduced reactivity for Leb hexasaccharide, LeX-pentasaccharide, sLeX, Lea, and sLea, while higher levels of reactivity are observed for LeY and LeY constituents. […] This selective interaction sets apart reactivities between Leb and LeY, since reactivity is observed for the H type 1 constituent of Leb.

[11] = test system: HIV-1/3B isolate; assay: HIV-1 cell free neutralization; assay type: cell-based; settings: Balb/c anti-peptide sera
Text: FIGS. 7A, 7B and 7C depict anti-peptide sera mediation of HIV-1 cell free neutralization.
Mannose, sialyl and histo-blood group related carbohydrate epitopes (particularly LeY) are found on the major envelope protein of the human immunodeficiency virus (HIV). Consequently, we examined the extent to which the anti-peptide sera could mediate HIV-1 cell free neutralization. We observed that sera from Balb/c and C57B1/6 mice immunized with P1 or P2, neutralized HIV-1/MN at final dilution's up to 1:64 (FIGS. 7a-c). FIG. 7a illustrates the neutralization of HIV-1/MN by anti-P1 and P2 sera from Balb/c mice. Normal human sera (NHS), as well as the anti-P3 sera, were ineffective at blocking syncytia formnation, whereas human α-HIV-1 sera from 4 different infected patients neutralize cell free virus at dilution's up to 1:64. Sera derived from C57B1/6 mice also followed this profile (FIG. 7b). The isolate specificity was further determined by cell free neutralization of the HIV-1/3B isolate (FIG. 7c).

[12] = test system: anti-ganglioside antibody ME361; assay: ELISA reaction of MAb ME361 with MAP peptides; assay type: binding; settings: MAP peptide forms
Description: as §2, §3, §5

[13] = ELISA reactivity of sera of peptide-immunized mice with LeY and Leb; assay type: in vivo, Balb/c mice; settings: anti-1104 MAP sera
Text: The immunological presentation of the putative motifs, (i.e. short or longer peptides, presentation in a helix or beta bend, monovalent or multivalent (clustered forms)) might mimic overlapping epitopes on otherwise different carbohydrate structures. To test this idea, Balb/c mice were immunized with peptide-proteosome conjugates representative of the motifs YYPYD (SEQ ID NO: 6), and YYRYD (SEQ ID NO: 7) or the same peptides as MAP forms that are multiple repeats of the motifs administered with QS-21. Sera were collected 1 week after the last immunization, pooled and tested for reactivity with LeY and Leb. […] Superposition of LeY and Leb structures indicate that despite the change of glycosidic linkage from β1-3 to β1-4 in the type 1 and 2 chains, resulting conformational features of the respective sugar moieties are still shared forming a common topography. The only effective difference is the position of the N-acetyl and hydroxymethyl groups projected on opposite sides of the type 1 and 2 difucosylated structures.
Sera derived from immunization with the MAP peptides indicate that the IgM isotype is the predominate form, titering out to 1:2000 for the two carbohydrate forms, but displaying significant differences in reactivity for LeY and Leb that are accentuated at 1:100 and 1:500 titer (FIG. 4b). […]

[14] = molecular target: anti-LeY monoclonal antibody BR55-2; assay: competition ELISA: soluble MAP peptide against solid-phase LeY-PAA for BR55-2 (FIG. 2b)
[15] = MCF-7, sera raised to the immunogen, final dilution 1:15
[16] = OVAR-3, sera raised to the immunogen, final dilution 1:15
[17] = SKME1-28, sera raised to the immunogen, final dilution 1:15
[18] = WM793, sera raised to the immunogen, final dilution 1:15
[19] = SKBR3, sera raised to the immunogen, final dilution 1:15
[20] = anti-1104 MAP sera, 1:50 serum dilution

LDVVLAWRDGLSGAS [Peptide G2, LDVVLAWRDGLSGAS]
averaged percent cytotoxicity [1]: 15%
averaged percent cytotoxicity [2]: 11%
averaged percent cytotoxicity [3]: 87%
averaged percent cytotoxicity [4]: 90%
averaged percent cytotoxicity [5]: 13%

GGIYYPYDIYYPYDIYYPYD (Novel Sequence) [Peptide K61105]
ELISA reactivity of BR55-2 with MAP peptide [6]: reduces the recognition ability
ELISA reactivity with FH-6 [7]: also reactive

APWLYAP (Novel Sequence) [reference compound]
ELISA reactivity of 15.6 / BR15-6A with peptide [8]: negative
binding of peptide to BR55-2 in ELISA [6]: negative

GVVWRYTAPVHLGDG [Peptide G1, GVVWRYTAPVHLGDG]
averaged percent cytotoxicity [1]: 20%
averaged percent cytotoxicity [2]: 9%
averaged percent cytotoxicity [3]: 75%
averaged percent cytotoxicity [4]: 90%
averaged percent cytotoxicity [5]: 10%

GGYYRYDIYYRYDIYYRYD (Novel Sequence) [Peptide K61107]
ELISA reactivity of BR55-2 with MAP peptide [6]: bound very well
ELISA reactivity with FH-6 [7]: also reactive
inhibition of BR55-2 binding to LeY [9]: 50%
less reactivity with Lea and Sialyl-Lex ([10]; antisera to MAP, 1:50 dilution): about 1 fold

GGIYYPYDIYYPYDIYYPYD (Novel Sequence) [Peptide P1]
averaged percent cytotoxicity [1, 15]: 66%
averaged percent cytotoxicity [2, 16]: 89%
averaged percent cytotoxicity [3, 17]: 10%
averaged percent cytotoxicity [4, 18]: 9%
averaged percent cytotoxicity [5, 19]: 90%
neutralization of HIV-1/3B infection in vitro [11]: effective in neutralizing

GGIYWRYDIYWRYDIYWRYD (Novel Sequence) [Peptide P2, elsewhere called YYRYD motif]
averaged percent cytotoxicity [1]: 29%
averaged percent cytotoxicity [2]: 84%
averaged percent cytotoxicity [3]: 13%
averaged percent cytotoxicity [4]: 9%
averaged percent cytotoxicity [5]: 80%
neutralization of HIV-1/3B infection in vitro [11]: effective in neutralizing

GGGAPWLYGAPWLYGAPWLY [Peptide K61223, triple repeat of the APWLY motif]
ELISA reactivity of 15.6 / BR15-6A with peptide [8]: not reactive
ELISA reactivity of BR55-2 with MAP peptide [6]: not reactive; also recorded: little reactivity
ELISA reactivity (O.D.) of ME361 with MAP peptide [12]: not reactive

IMILLIFSLLWFGGA (Novel Sequence) [Peptide B1]
ELISA reactivity with FH-6 [7]: does not react
averaged percent cytotoxicity [1, 15]: 70%
averaged percent cytotoxicity [2, 16]: 85%
averaged percent cytotoxicity [3, 17]: 10%
averaged percent cytotoxicity [4, 18]: 10%
averaged percent cytotoxicity [5, 19]: 90%
increase in reactivity for LeY over Leb [13]: three to fold increase
isotype of anti-peptide sera [13]: predominately of IgM isotype
serum reactivity with Fucal-3GlcNAc [10, 20]: best reactivity
serum reactivity with Fucα1-4GIcNAc [10, 20]: significantly reduced reactivity
serum reactivity with Galβ1-3Gal [10, 20]: Minimal binding

GGIYWRYDIYWRYDIYWRYD (Novel Sequence) [Peptide K61106]
ELISA reactivity of BR55-2 with MAP peptide [6]: bound very well
ELISA reactivity with FH-6 [7]: also reactive
inhibition of BR55-2 binding to LeY [9]: 50%

APWLYGPA (Novel Sequence) [reference compound]
binding of peptide to BR55-2 in ELISA [6]: does not bind

GGYYRYDIYYRYDIYYRYD (also: multiple antigen peptide (MAP) form, branches and core not given here) [K61107 MAP peptide …]
molar excess giving 50% inhibition (times molar excess) [14]: 20

GGIYWRYDIYWRYDIYWRYD (also: multiple antigen peptide (MAP) form, branches and core not given here) [K61106 MAP peptide …]
molar excess giving 50% inhibition (times molar excess) [14]: 20
